# Data published in patent US20240391870A1 (Arcturus Therapeutics, Inc., priority 2023, published 2024).
# Key:
# [1] = Mouse plasma stability; assay type: in vitro ADME, CD-1 mouse; conditions: 1 uM lipid
# Description: Lipid stock solution was prepared by dissolution of the lipid in isopropanol at the concentration of 5 mg/mL. A requisite volume of the lipid-isopropanol solution was then diluted to 100 μM concentration at a total volume of 1.0 mL with in 50:50 (v/v) ethanol/water. Ten microliters of this 100 μM solution was spiked into 1.0 mL of mouse plasma (BioIVT, Cat. No.: MSE00PLNHUNN, CD-1 mouse, anticoagulant: sodium heparin, not filtered) that was pre-warmed to 37° C. and was stirred at 50 rpm with a magnetic stir bar. The starting concentration of lipids in plasma was thus 1 μM. At time points 0, 15, 30, 45, 60 and 120 min, 0.1 mL of the plasma was withdrawn from the reaction mixture and the protein was precipitated by adding 0.9 mL of ice-cold 4:1 (v/v) acetonitrile/methanol with 1 μg/mL of a selected internal standard lipid added. After filtration through a 0.45 micron 96-well filtering plate, the filtrates were analyzed by LC-MS (Thermo Fisher's Vanquish UHPLC—LTQ XL linear ion trap Mass Spectrometer); Waters XBridge BEH Shield RP18 2.5 micron (2.1×100 mm) column with its matching guard column. Mobile phase A was 0.1% formic acid in water, and mobile phase B was 0.1% formic acid in 1:1 (v/v) acetonitrile/methanol. Flow rate was 0.5 ml/min. Elution gradient was: Time 0-1 min: 10% B; 1-6 min: 10%-95% B; 6-8.5 min: 95% B; 8.5-9 min: 95%-10% B; 9-10 min: 10% B. Mass spectrometry was in positive scanning mode from 600-1100 m/z. The peak of the molecular ion of the lipids was integrated in the extracted ion chromatography (XIC) using Xcalibur software (Thermo Fisher). The relative peak area compared to T=0, after normalization by the peak area of the internal standard, was used as the percentage of the lipid remaining at each time point. T1/2 values were calculated using the first-order decay model.
# [2] = Measured pKa in the indicated formulation; conditions: for pKa: EPO / pKa: FVII: Table 2; for pKa: EPO: measured in EPO formulation; for pKa: FVII: measured in FVII formulation
# Description: Measured pKa values were determined based on the pH measured in the indicated formulation (i.e., EPO or FVII formulation).
# [3] = system: factor VII; test: Factor VII knock down evaluation (LNP with FVII siRNA); assay type: in vivo, Balb/C mice; conditions: plasma FVII after 48 h vs saline control; for FVII KD % 0.01 mpk: 0.01 mpk i.v.; for FVII KD % 0.03 mpk: 0.03 mpk i.v.
# Description: Lipid formulations comprising a FVII siRNA further described below were evaluated for their knockdown activity using the protocol of this example. In the FVII evaluation, seven to eight week-old, female Balb/C mice were purchased from Charles River Laboratories (Hollister, CA). The mice were held in a pathogen-free environment and all procedures involving the mice were performed in accordance with guidelines established by the Institutional Animal Care and Use Committee (IACUC). Lipid nanoparticles containing factor VII siRNA were administered intravenously at a dosing volume of 10 mL/kg and two dose levels (0.03 and 0.01 mg/kg). After 48 h, the mice were anesthetized with isoflurane and blood was collected retro-orbitally into Microtainer® tubes coated with 0.109 M sodium citrate buffer (BD Biosciences, San Diego, CA) and processed to plasma. Plasma specimens were tested for factor VII levels immediately or stored at −80° C. for later analysis. Measurement of FVII protein in plasma was determined using the colorimetric Biophen VII assay kit (Aniara Diagnostica, USA). Absorbance was measured at 405 nm and a calibration curve was generated using the serially diluted control plasma to determine levels of factor VII in plasma from treated animals, relative to the saline-treated control animals.
# [4] = system: hEPO; test: hEPO mRNA expression evaluation (hEPO-LNPs); assay type: in vivo, Balb/c mice; conditions: serum hEPO after 6 hr; for EPO exprssn (ng/mL) 0.03 mpk: 0.03 mpk i.v.; for EPO exprssn (ng/mL) 0.1 mpk: 0.1 mpk i.v.
# Description: Protocol for hEPO mRNA Expression Evaluation
# Lipid formulations comprising a hEPO mRNA below were evaluated for their ability to express hEPO in vivo according to the protocol of this example. All animal experiments were conducted using institutionally-approved protocols (IACUC). In this protocol, female Balb/c mice at least 6-8 weeks of age were purchased from Charles River Laboratory. […] After 6 hr, blood was collected with serum separation tubes, and the serum was isolated by centrifugation. Serum hEPO levels were then measured using an ELISA assay (Human Erythropoietin Quantikine IVD ELISA Kit, R&D Systems, Minneapolis, MD).
# [5] = In vivo biodegradability assay (lipid in liver); conditions: mouse liver, 48 h
# Description: In vivo biodegradability assay was performed to assess the biodegradability of lipids in the LNP. Briefly, mice were injected with either 0.1 or 0.03 mg/Kg dose and after 24 or 48 hours mice livers were collected. To measure the concentration of lipids in the mouse liver, liver samples were homogenized in appropriate buffer in 1-10 dilution and mixed with the same amount of stabilized plasma. The samples were then mixed with organic solvents spiked with internal standard to precipitate proteins. After centrifugation, supernatant was diluted further with organic solvent before sample analysis by LC-MS. In LC-MS analysis, positive electrospray ionization was used, and multiple reaction monitoring (MRM) parameters were set up to specifically target the lipid analyte and internal standard. Calibration standards were prepared in stabilized plasma and mixed with same amount of homogenization buffer before protein precipitation. Quality control samples with known amounts of lipid was prepared in blank liver homogenate to monitor the precision and accuracy of the assay.
Structure (SMILES),"Percent remaining in mouse plasma after 2 h ([1]; Table 1, mouse plasma 37 C) [%]","Percent remaining in mouse plasma after 2 h ([1]; Table 2, mouse plasma 37 C) [%]",pKa ([2]; EPO formulation),pKa: EPO [2],FVII KD % 0.01 mpk ([3]; Table 1) [%],FVII KD % 0.03 mpk ([3]; Table 1) [%],FVII KD % 0.01 mpk ([3]; Table 2) [%],FVII KD % 0.03 mpk ([3]; Table 2) [%],EPO exprssn (ng/mL) 0.03 mpk ([4]; Table 1) [ng/mL],EPO exprssn (ng/mL) 0.1 mpk ([4]; Table 1) [ng/mL],EPO exprssn (ng/mL) 0.03 mpk ([4]; Table 2) [ng/mL],EPO exprssn (ng/mL) 0.1 mpk ([4]; Table 2) [ng/mL],In vivo degradability (ng/tissue) at 48h 0.03 mpk ([5]; Table 1),In vivo degradability (ng/tissue) at 48h 0.1 mpk ([5]; Table 1),In vivo degradability (ng/tissue) at 48h 0.03 mpk ([5]; Table 2),In vivo degradability (ng/tissue) at 48h 0.1 mpk ([5]; Table 2),pKa ([2]; FVII formulation),pKa: FVII [2]
"CCCCCCCC(=O)OCC(COC(=O)CCCCCCC)OC(=O)CCCC(CCCC(=O)OC(COC(=O)CCCCCCC)COC(=O)CCCCCCC)SC(=O)CCCN(C)C [LIPID 4, bis(1,3-bis(Octanoyloxy)propan-2-yl) 5-((4-(dimethylamino)butanoyl)thio)nonanedioate]",13,13,6.22,(6.22/ND),71,33,71,33,392,1108,392,1108,BLOQ,BLOQ,BLOQ,BLOQ,–,–
"CN(C)CCCSC(=O)N(CCCC(=O)OC(COC(=O)CCC1CCCCC1)COC(=O)CCC1CCCCC1)CCCC(=O)OC(COC(=O)CCC1CCCCC1)COC(=O)CCC1CCCCC1 [LIPID 10, ((4,4′-((((3-(Dimethylamino)propyl)thio)carbonyl)azanediyl)bis(butanoyl))bis(oxy))bis(propane-2,1,3-triyl)tetrakis(3-cyclohexylpropanoate)]",36,36,6.46,6.46,92,83,92,83,387,1179,387,1179,BLOQ,BLOQ,BLOQ,BLOQ,6.67,6.67
"CCCCCCC(C)C(=O)OCC(COC(=O)C(C)CCCCCC)OC(=O)CCCN(CCCC(=O)OC(COC(=O)C(C)CCCCCC)COC(=O)C(C)CCCCCC)C(=O)SCCCN(C)C (stereo not shown) [LIPID 18, ((4,4′-((((3-(Dimethylamino)propyl)thio)carbonyl)azanediyl)bis(butanoyl))bis(oxy))bis(propane-2,1,3-triyl)tetrakis(2-methyloctanoate)]",100,100,6.44,6.44,60,88,60,88,–,1081,–,1081,<340 ng/tissue,639 ng/tissue,<340 ng/tissue,639 ng/tissue,6.49,6.49
CCCCCCCCC(=O)OCC(COC(=O)CCCCCCCC)COC(=O)CCN(CCC(=O)OCC(COC(=O)CCCCCCCC)COC(=O)CCCCCCCC)C(=O)SCCCN(C)C [LIPID 14],116,100,7.19,7.19,65,90,65,90,–,–,–,1152,<340 ng/tissue,<340 ng/tissue,<340 ng/tissue,<340 ng/tissue,6.86,6.86
"CCCCCCCCC(=O)OCC(COC(=O)CCCCCCCC)OC(=O)CN(CC(=O)OC(COC(=O)CCCCCCCC)COC(=O)CCCCCCCC)C(=O)SCCCN(C)C [LIPID 8, ((2,2′-((((3-(Dimethylamino)propyl)thio)carbonyl)azanediyl)bis(acetyl))bis(oxy))bis(propane-2,1,3-triyl)tetranonanoate]",81,81,6.5,(6.50/ND),–,–,–,–,169,701,169,701,BLOQ,BLOQ,BLOQ,BLOQ,–,–
"CCCCCC(C)(C)C(=O)OCC(COC(=O)C(C)(C)CCCCC)OC(=O)CCCN(CCCC(=O)OC(COC(=O)C(C)(C)CCCCC)COC(=O)C(C)(C)CCCCC)C(=O)SCCCN(C)C [LIPID 19, ((4,4′-((((3-(Dimethylamino)propyl)thio)carbonyl)-azanediyl)bis(butanoyl))bis(oxy))bis(propane-2,1,3-triyl)tetrakis(2,2-dimethylheptanoate)]",–,100,6.27,(6.27/ND),–,–,–,–,–,–,–,958,<340 ng/tissue,847 ng/tissue,<340 ng/tissue,847 ng/tissue,–,–
